pIC50: −log10 of the molar value.
Tests used:
[1] = test system: JAK2 dependent human megakaryoblastic leukemia cell line SET-2; assay: Cell proliferation assay (CellTiter-Glo, 72 hours); format: cell-based; settings: Homo sapiens, SET-2 cells
Protocol: The JAK2 dependent human megakaryoblastic leukemia cell line SET-2 (DSMZ, Braunschweig GERMANY) and the JAK2 independent human chronic myelogenous leukaemia cell line K562 (ECACC, Wiltshire, UK) were cultured in RPMI-1640 medium-Glutamax (Gibco BRL, Gaithesburg, Md., USA), supplemented with 10% fetal bovine serum (FBS) at 37° C. and 5% CO2.
Cell Proliferation Assay:
Approximately 5×10^3 cells were plated into 384 microtiter plate wells in 50 μL of growth media with different concentrations of inhibitors. The cells were incubated at 37° C. and 5% CO2 for 72 hours, then the plates were processed using CellTiter-Glo assay (Promega, Madison, Wis., USA) following the manufacturer's instruction. Briefly 25 μL/well reagent solution is added to each well and after 5 minutes shaking the micro-plates are read by Envision luminometer (PerkinElmer, Waltham, Mass., USA).
Data are analyzed by Symix Assay Explorer software (Symix Technologies Inc.) that provides sigmoidal fitting algorithm of the 8 points dilutions curves for IC50 determination.

[2] = target: T1, JAK2 kinase domain (Homo sapiens, UniProt O60674); assay: Biochemical assay for inhibitors of JAK kinase activity (JAK2, 33P-γ-ATP/dowex resin); settings: JAK2 kinase domain 1 nM, 60 μM ATP
T1 construct: commercially available JAK2 kinase domain; purchased Invitrogen, Eugene, Oreg
Text: Biochemical Assay for Inhibitors of JAK Kinase Activity
Specific JAK2, JAK1 or JAK3 peptide substrates are trans-phosphorylated by JAK kinases in the presence of ATP traced with 33P-γ-ATP. At the end of the phosphorylation reaction, the unreacted ATP, cold and radioactive, is captured by an excess of dowex ion exchange resin that eventually settles by gravity to the bottom of the reaction plate. The supernatant is subsequently withdrawn and transferred into a counting plate that is then evaluated by β-counting.
500 g of wet resin (SIGMA, custom prepared resin DOWEX 1×8 200-400 mesh, 2.5 Kg) are weighed out and diluted 2 to 1 in 150 mM sodium formate, pH 3.00. The resin is allowed to settle down overnight and then the supernatant is discarded. After three washes as above over a couple of days, the resin is allowed to settle and two volumes (with respect to the resin volume) of 150 mM sodium formate buffer are added.
Kinase buffer was composed of 50 mM HEPES pH 7.5 containing 10 mM MgCl2, 2.5 mM DTT, 10 μM Na3VO4 and 0.2 mg/mL BSA.
JAK2 Specific Assay Conditions
The JAK2 kinase assay was run with a final enzyme concentration of 1 nM, in the presence of 60 μM ATP, 3 nM 33P-γ-ATP and 64 μM of substrate BioDBn*306 (Aminoacid sequence: LPLDKDYYVVREPGQ—SEQ ID NO: 1). The peptidic substrate was purchased from American Peptide Company (Sunnyvale, Calif.).
For IC50 determination, test compounds are received as a 1 mM solution in 100% DMSO, distributed into 96 well plates: compounds are then plated into the first column of a microtiter plate (A1 to G1), 100 μL/well.
An automated station for serial dilutions (Biomek FX, Beckman) is used for producing 1:3 dilutions in 100% DMSO, from line A1 to A10, and for all the compounds in the column. Moreover, 4-5 copies of daughter plates are prepared by reformatting 5 μL of this first set of 100% DMSO dilution plates into 384 deep well-plates: one of these plates with the serial dilutions of test compounds will be thawed the day of the experiments, reconstituted at a 3× concentration with water and used in the IC50 determination assays. In a standard experiment, the highest concentration (3×) of all compounds is 30 μM, while the lowest one is 1.5 nM. Each 384 well-plate will contain at least one curve of the standard inhibitor staurosporine and reference wells (total enzyme activity vs. no enzymatic activity) for the Z′ and signal to background evaluation.
384-well plates, V bottom (test plates) are prepared with 5 μL of the compound dilution (3×) and then placed onto a PlateTrak 12 robotized station (Perkin Elmer; the robot has one 384-tip pipetting head for starting the assay plus one 96-tip head for dispensing the resin) together with one reservoir for the Enzyme mix (3×) and one for the ATP mix (3×). At the start of the run, the robot aspirates 5 μL of ATP mix, makes an air gap inside the tips (3 μl) and aspirates 5 μL of JAK2 mix. The following dispensation into the plates plus 3 cycles of mixing, done by the robot itself, starts the kinase reaction. At this point, the correct concentrations are restored for all the reagents. The robot incubates the plates for 60 minutes at room temperature, and then stops the reaction by pipetting 60 μL of dowex resin suspension into the reaction mix. In order to avoid tip clogging, wide bore tips are used to dispense the resin suspension. Three cycles of mixing are done immediately after the addition of the resin. Another mixing cycle is performed after all the plates are stopped, this time using normal tips: the plates are then allowed to rest for about one hour in order to allow resin sedimentation. At this point, 27 μL of the supernatant are transferred into 384-Optiplates (Perkin-Elmer), with 50 μL of Microscint 40 (Perkin-Elmer); after 5 min of orbital shaking the plates are read on a Perkin-Elmer Top Count radioactivity counter. […]

T1 sequence (O60674 849-1124 limits assumed): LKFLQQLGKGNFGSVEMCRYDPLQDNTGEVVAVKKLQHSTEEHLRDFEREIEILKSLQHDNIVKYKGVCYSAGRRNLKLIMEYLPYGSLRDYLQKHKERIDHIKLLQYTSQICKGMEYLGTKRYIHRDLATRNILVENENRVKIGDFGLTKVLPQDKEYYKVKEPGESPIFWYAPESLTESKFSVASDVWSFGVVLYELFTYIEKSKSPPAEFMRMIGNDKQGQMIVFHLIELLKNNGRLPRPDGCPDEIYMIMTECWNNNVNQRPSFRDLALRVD

SMILES | pIC50 [1] | pIC50 [2]
COc1ccccc1C#Cc1cnc(N)nc1-c1cc(C(N)=O)c(-c2cc(Cl)ccc2C)[nH]1 [compound 5, 5-{2-Amino-5-[(2-methoxyphenyl)ethynyl]pyrimidin-4-yl}-2-(5-chloro-2-methylphenyl)-1H-pyrrole-3-carboxamide] | 6.12 | 8.30
Cc1ccc(Cl)cc1-c1[nH]c(-c2nc(N)ncc2C#CC2CC2)cc1C(N)=O [compound 38, 5-[2-Amino-5-(cyclopropylethynyl)pyrimidin-4-yl]-2-(5-chloro-2-methylphenyl)-1H-pyrrole-3-carboxamide] | 6.24 | 8.70
Cc1ccc(Cl)cc1-c1[nH]c(-c2nc(N)ncc2C#Cc2ccc(Br)cc2)cc1C(N)=O [compound 40, 5-{2-Amino-5-[(4-bromophenyl)ethynyl]pyrimidin-4-yl}-2-(5-chloro-2-methylphenyl)-1H-pyrrole-3-carboxamide] | 5.61 | 7.07
Cc1ccc(Cl)cc1-c1[nH]c(-c2nc(N)ncc2C#Cc2ccccc2NCCO)cc1C(N)=O [compound 43, 5-[2-Amino-5-({2-[(2-hydroxyethyl)amino]phenyl}ethynyl)pyrimidin-4-yl]-2-(5-chloro-2-methylphenyl)-1H-pyrrole-3-carboxamide] | 6.02 | 7.89
Cc1ccc(Cl)cc1-c1[nH]c(-c2nc(N)ncc2C#CCN(C)C)cc1C(N)=O [compound 44, 5-{2-Amino-5-[3-(dimethylamino)prop-1-yn-1-yl]pyrimidin-4-yl}-2-(5-chloro-2-methylphenyl)-1H-pyrrole-3-carboxamide] | 6.34 | 7.96
Cc1ccc(Cl)cc1-c1[nH]c(-c2nc(N)ncc2C#Cc2ccccc2NCCN(C)C)cc1C(N)=O [compound 45, 5-{2-Amino-5-[(2-{[2-(dimethylamino)ethyl]amino}phenyl)ethynyl]pyrimidin-4-yl}-2-(5-chloro-2-methylphenyl)-1H-pyrrole-3-carboxamide] | 6.25 | 8.00
Cc1ccc(Cl)cc1-c1[nH]c(-c2nc(N)ncc2C#CC(C)(C)O)cc1C(N)=O [compound 54, 5-[2-Amino-5-(3-hydroxy-3-methylbut-1-yn-1-yl)pyrimidin-4-yl]-2-(5-chloro-2-methylphenyl)-1H-pyrrole-3-carboxamide] | 6.11 | 7.80

The next lines start with the values.

pIC50 [1] | pIC50 [2] | SMILES
6.52 | 8.70 | Cc1ccc(Cl)cc1-c1[nH]c(-c2nc(N)ncc2C#Cc2ccccc2)cc1C(N)=O [compound 1, 5-[2-Amino-5-(phenylethynyl)pyrimidin-4-yl]-2-(5-chloro-2-methylphenyl)-1H-pyrrole-3-carboxamide]
6.30 | 9.00 | Cc1ccc(Cl)cc1-c1[nH]c(-c2nc(N)ncc2C#Cc2cccc(NC3CCN(C)CC3)c2)cc1C(N)=O [compound 12, 5-[2-Amino-5-({3-[(1-methylpiperidin-4-yl)amino]phenyl}ethynyl)pyrimidin-4-yl]-2-(5-chloro-2-methylphenyl)-1H-pyrrole-3-carboxamide]
6.54 | 9.00 | Cc1ccc(Cl)cc1-c1[nH]c(-c2nc(N)ncc2C#Cc2ccc(N3CCC(N4CCCC4)CC3)cc2)cc1C(N)=O [compound 26, 5-[2-Amino-5-({4-[4-(pyrrolidin-1-yl)piperidin-1-yl]phenyl}ethynyl)pyrimidin-4-yl]-2-(5-chloro-2-methylphenyl)-1H-pyrrole-3-carboxamide]
6.51 | 9.00 | Cc1ccc(Cl)cc1-c1[nH]c(-c2nc(N)ncc2C#Cc2ccc(N3CCC[C@H]3CN3CCCC3)cc2)cc1C(N)=O [compound 31, 5-[2-Amino-5-({4-[(2S)-2-(pyrrolidin-1-ylmethyl)pyrrolidin-1-yl]phenyl}ethynyl)pyrimidin-4-yl]-2-(5-chloro-2-methylphenyl)-1H-pyrrole-3-carboxamide]
6.96 | 8.70 | Cc1ccc(Cl)cc1-c1[nH]c(-c2nc(N)ncc2C#Cc2cccnc2)cc1C(N)=O [compound 53, 5-[2-Amino-5-(pyridin-3-ylethynyl)pyrimidin-4-yl]-2-(5-chloro-2-methylphenyl)-1H-pyrrole-3-carboxamide]
7.10 | 9.00 | Cc1ccc(Cl)cc1-c1[nH]c(-c2nc(N)ncc2C#Cc2ccc(CN3CCN(C)CC3)cc2)cc1C(N)=O [compound 65, 5-[2-Amino-5-({4-[(4-methylpiperazin-1-yl)methyl]phenyl}ethynyl)pyrimidin-4-yl]-2-(5-chloro-2-methylphenyl)-1H-pyrrole-3-carboxamide]
6.11 | 8.22 | Cc1ccc(Cl)cc1-c1[nH]c(-c2ccnc(N)n2)c(C#Cc2cccc(NC3CCN(C)CC3)c2)c1C(N)=O [compound 80, 5-(2-Aminopyrimidin-4-yl)-2-(5-chloro-2-methylphenyl)-4-({3-[(1-methylpiperidin-4-yl)amino]phenyl}ethynyl)-1H-pyrrole-3-carboxamide]

— US8912200B2, “Alkynyl substituted pyrimidinyl-pyrroles active as kinases inhibitors” (Nerviano Medical Sciences S.R.L., priority 2011, dated 2014)
